Assay results from patent EP0818443B1, “Mercaptoketones and mercaptoalcohols, a process for their preparation and their use as inhibitors of matrix metalloproteinases” (American Cyanamid Company, priority 1996, dated 1998).
One block for each compound: values may come before it.

Legend:
[1] = molecular target: T1, human recombinant stromelysin (Homo sapiens, UniProt P08254); assay: Stromelysin inhibition in vitro (thiopeptide substrate, DTNB); assay type: biochemical
T1 construct: human recombinant stromelysin (truncated, Affymax); purchased Affymax
Procedure: The assay is based on the cleavage of the thiopeptide substrate ((Ac-Pro-Leu-Gly(2-mercapto-4-methylpentanoyl)Leu-Gly-OEt), Bachem Bioscience) by the enzyme stromelysin, releasing the substrate product which forms a colorimetric reaction with DTNB ((5,5'-dithiobis(2-nitrobenzoic acid)). The thiopeptide substrate is made up as a 20mM stock in 100% DMSO and stored frozen while the DTNB stock is dissolved in 100% DMSO and stored as a 100mM stock at room temperature. Both the substrate and DTNB are diluted to 1mM with assay buffer (50mM HEPES, pH 7.0, 5 mM CaCl2) before use. The stock of human recombinant stromelysin (truncated, Affymax) is diluted with assay buffer to a final concentration of 12.5 nM in the reaction.
The enzyme, DTNB, and substrate (10µM final concentration) with/without inhibitor (total reaction volume of 200µL) is added to a 96 well plate and then the increase in color is monitored spectrophotometrically for 5 minutes at 405 nanometers (nm) on a plate reader. The increase in OD405 is plotted and the slope of the line is calculated which represents the reaction rate.
The mean of the control rate is calculated and compared for statistical significance (p<0.05) with drug-treated rates using Dunnett's multiple comparison test. Dose-response relationships can be generated using multiple doses of drug and IC50 values with 95% Cl are estimated using linear regression (IPRED, HTB) (Weingarten and Feder, Spectrophometric Assay For Vertebrate Collagenase, Anal. Biochem 147, 437-440 (1985)).

[2] = molecular target: T2, human recombinant fibroblast collagenase (Homo sapiens, UniProt P03956); assay: Collagenase inhibition in vitro (fluorogenic peptide substrate); assay type: biochemical
T2 construct: human recombinant fibroblast collagenase (truncated, mw 18,828, WAR, Radnor)
T2 sequence (P03956 100-269 limits assumed): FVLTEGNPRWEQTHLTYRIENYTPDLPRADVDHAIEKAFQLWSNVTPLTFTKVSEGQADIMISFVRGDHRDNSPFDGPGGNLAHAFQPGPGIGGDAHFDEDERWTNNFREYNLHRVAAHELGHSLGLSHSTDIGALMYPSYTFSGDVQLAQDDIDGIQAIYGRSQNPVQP
Procedure: The assay is based on the cleavage of a peptide substrate ((Dnp-Pro-Cha-Gly-Cys(Me)-His-Ala-Lys(NMa)-NH2), Peptide International, Inc.) by collagenase releasing the fluorescent NMa group which is quantitated on the fluorometer. Dnp quenches the NMa fluorescence in the intact substrate. The assay is run in HCBC assay buffer (50mM HEPES, pH 7.0, 5mM Ca^+2, 0.02% Brij, 0.5% cysteine), with human recombinant fibroblast collagenase (truncated, mw 18,828, WAR, Radnor). Substrate is dissolved in methanol and stored frozen in 1mM aliquots. Collagenase is stored frozen in buffer in 25 µM aliquots. For the assay, substrate is dissolved in HCBC buffer to a final concentration of 10 µM and collagenase to a final concentration of 5nM. Compounds are dissolved in methanol, DMSO, or HCBC. The methanol and DMSO are diluted in HCBC to <1%. Compounds are added to the 96 well plate containing enzyme and the reaction is started by the addition of substrate.
The reaction is read (excitation 340 nm, emission 444nm) for 10 minutes and the increase in fluorescence over time is plotted as a linear line. The slope of the line is calculated and represents the reaction rate.
The linearity of the reaction rate is confirmed (r^2>0.85). The mean of the control rate is calculated and compared for statistical significance (p<0.05) with drug-treated rates using Dunnett's multiple comparison test. Dose-response relationships can be generated using multiple doses of drug and IC50 values with 95% CI are estimated using linear regression (IPRED, HTB) (Bickett, D. M. et al., A High Throughput Fluorogenic Substrate For Interstitial Collagenase (MMP-1) and Gelatinase (MMP-9), Anal. Biochem. 212, 58-64 (1993)).

gelatinase = gelatinase (Homo sapiens, UniProt P14780); assay: In vivo MMP inhibition (enzyme in implanted dialysis tubing); parameters: species or system rat (Sprague-Dawley) or mouse (CD-1)
Procedure: A 2 cm piece of dialysis tubing (molecular weight cut-off 12-14,000, 10 mm flat width) containing matrix metalloproteinase enzyme (stromelysin, collagenase or gelatinase in 0.5 mL of buffer) is implanted either ip or sc (in the back) of a rat (Sprague-Dawley, 150-200g) or mouse (CD-1, 25-50g) under anesthesia. Drugs are administered PO, IP, SC or IV through a canula in the jugular vein. Drugs are administered in a dose volume of 0.1 to 0.25 mL/animal. Contents of the dialysis tubing is collected and enzyme activity assayed.
Enzyme reaction rates for each dialysis tube are calculated. Tubes from at least 3 different animals are used to calculate the mean± sem. Statistical significance (p<0.05) of vehicle-treated animals versus drug-treated animals is determined by analysis of variance. (Agents and Actions 21: 331, 1987)

[3] = molecular target: T3, human neutrophil gelatinase B (Homo sapiens, UniProt P14780); assay: Gelatinase inhibition in vitro (thiopeptide substrate, DTNB); assay type: biochemical
T3 construct: human neutrophil gelatinase B; from tissue; host or cells: human neutrophils
Procedure: The increase in OD405 is plotted and the slope of the line is calculated which represents the reaction rate.
The mean of the control rate is calculated and compared for statistical significance (p<0.05) with drug-treated rates using Dunnett's multiple comparison test.

MMP stromelysin = MMP stromelysin (Homo sapiens, UniProt P08254); conditions: WO 9407481; cited from earlier work
Sequence of MMP stromelysin (P08254 100-477): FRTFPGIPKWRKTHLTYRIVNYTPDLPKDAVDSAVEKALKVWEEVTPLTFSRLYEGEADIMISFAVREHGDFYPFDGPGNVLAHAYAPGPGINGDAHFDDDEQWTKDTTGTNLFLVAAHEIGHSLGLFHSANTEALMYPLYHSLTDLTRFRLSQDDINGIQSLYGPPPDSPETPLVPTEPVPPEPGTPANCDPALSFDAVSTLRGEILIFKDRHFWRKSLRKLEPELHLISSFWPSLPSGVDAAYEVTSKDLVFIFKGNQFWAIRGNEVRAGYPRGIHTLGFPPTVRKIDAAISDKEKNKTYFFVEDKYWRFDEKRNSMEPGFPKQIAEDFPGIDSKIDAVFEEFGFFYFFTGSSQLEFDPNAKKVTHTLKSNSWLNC

T1 sequence (P08254 100-272 limits assumed): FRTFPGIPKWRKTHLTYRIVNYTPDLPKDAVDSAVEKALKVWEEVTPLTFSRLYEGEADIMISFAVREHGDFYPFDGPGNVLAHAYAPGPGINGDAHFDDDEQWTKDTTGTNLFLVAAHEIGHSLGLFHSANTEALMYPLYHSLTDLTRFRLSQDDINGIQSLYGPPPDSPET
Sequence of gelatinase (P14780 94-707): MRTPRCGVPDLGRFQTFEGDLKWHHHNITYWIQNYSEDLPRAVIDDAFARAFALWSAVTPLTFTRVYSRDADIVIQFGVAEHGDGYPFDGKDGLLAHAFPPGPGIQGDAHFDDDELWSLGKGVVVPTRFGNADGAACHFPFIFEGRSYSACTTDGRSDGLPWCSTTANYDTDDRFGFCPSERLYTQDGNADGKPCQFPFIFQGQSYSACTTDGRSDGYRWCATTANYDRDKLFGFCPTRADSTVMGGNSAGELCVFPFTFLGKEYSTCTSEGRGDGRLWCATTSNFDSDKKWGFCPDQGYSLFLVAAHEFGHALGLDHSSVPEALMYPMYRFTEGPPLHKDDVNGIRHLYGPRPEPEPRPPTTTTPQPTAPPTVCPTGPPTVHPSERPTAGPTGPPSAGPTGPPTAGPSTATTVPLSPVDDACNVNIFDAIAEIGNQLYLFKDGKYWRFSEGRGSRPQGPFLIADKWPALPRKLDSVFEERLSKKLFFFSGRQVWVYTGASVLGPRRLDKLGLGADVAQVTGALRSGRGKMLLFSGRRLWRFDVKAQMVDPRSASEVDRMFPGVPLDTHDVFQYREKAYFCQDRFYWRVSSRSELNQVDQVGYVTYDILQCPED
T3 sequence (P14780 94-707): as above

- inhibition at 1 µM [1]: 38%
- inhibition at 1 µM ([2]; @1µM): 72%
- in vivo % gelatinase inhibition (gelatinase; 50mpk (milligrams/kilogram)): 0.44/50mpk %
SMILES: CNC(=O)[C@@H](NC(=O)[C@H](CC(C)C)C[C@@H](O)CSC(c1ccccc1)(c1ccccc1)c1ccccc1)C(C)(C)C [Example 35, (2R,4R)-4-Hydroxy-2-isobutyl-5-tritylsulfanylpentanoic acid ((1S)-2,2-dimethyl-1-methylcarbamoylpropyl)amide]

SMILES: CNC(=O)[C@@H](NC(=O)[C@@H](CC(=O)CS)CC(C)C)C(C)(C)C [Example 44, (2R)-2-Isobutyl-5-mercapto-4-oxopentanoic acid ((1S)-2,2-dimethyl-1-methylcarbamoylpropyl)amide]
- inhibition at 1 µM [1]: 58%
- IC50 [2]: 0.038 µM
- in vivo % gelatinase inhibition (gelatinase; 60mpk (milligrams/kilogram)): 4.8/60mpk %

SMILES: CNC(=O)[C@@H](NC(=O)[C@H](CC(C)C)C[C@H](O)CS)C(C)(C)C [Example 40, (2R,4S)-4-Hydroxy-2-isobutyl-5-mercaptopentanoic acid ((1S)-2,2-dimethyl-1-methylcarbamoylpropyl)amide]
- IC50 [2]: 0.041 µM
- in vivo % gelatinase inhibition (gelatinase; 50mpk (milligrams/kilogram)): 84.8/50mpk %
- IC50 [3]: 0.019 µM

SMILES: CC(C)C[C@H](NC(=O)[C@@H](CS)CCc1ccccc1)C(=O)Nc1ccccc1
- inhibitor of the MMP stromelysin (MMP stromelysin): moderate

SMILES: CNC(=O)[C@@H](NC(=O)[C@H](CC(C)C)C[C@@H](O)CS)C(C)(C)C [Example 39, (2R,4R)-4-Hydroxy-2-isobutyl-5-mercaptopentanoic acid ((1S)-2,2-dimethyl-1-methylcarbamoylpropyl)amide]
- IC50 [2]: 0.228 µM
- in vivo % gelatinase inhibition (gelatinase; 50mpk (milligrams/kilogram)): 20.4/50 mpk %
- IC50 [3]: 0.106 µM

SMILES: CCCCCCC[C@H](C[C@H](O)CS)C(=O)N[C@H](C(=O)NC)C(C)(C)C [Example 38, (2R)-2-((2S)-2-Hydroxy-3-mercaptopropyl)nonanoic acid ((1S)-2,2-dimethyl-1-methylcarbamoylpropyl)amide]
- IC50 [2]: 0.03 µM
- in vivo % gelatinase inhibition (gelatinase; 50mpk (milligrams/kilogram)): 22.2/50mpk %

SMILES: CCCCCCC[C@H](CC(=O)CS)C(=O)N[C@H](C(=O)NC)C(C)(C)C [Example 43, (2R)-2-(3-Mercapto-2-oxopropyl)nonanoic acid ((1S)-2,2-dimethyl-1-methylcarbamoylpropyl)amide]
- IC50 [1]: 0.028 µM
- IC50 [2]: 0.03 µM
- in vivo % gelatinase inhibition (gelatinase; 50mpk (milligrams/kilogram)): 0.73/50mpk* %
